PubChem BioAssay (NCI)
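Cells were grown in 96-well plates and exposed to each compound for 48 hours at five concentrations; endpoints were interpolated linearly between bracketing concentrations, or set to the highest concentration if not reached. GI50: concentration for 50% inhibition of growth. TGI denotes the concentration required for complete inhibition of growth.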

How the values were obtained:
Assay in all cases: NCI anticancer screen, dose series, 48 h
SF-268 CNS = system: SF-268 CNS
OVCAR-8 ovarian = system: OVCAR-8 ovarian
LOX IMVI melanoma = system: LOX IMVI melanoma
UACC-257 melanoma = system: UACC-257 melanoma
COLO 205 colon = system: COLO 205 colon
EKVX NSCLC = system: EKVX NSCLC
NCI-H226 lung = system: NCI-H226 lung
SR leukemia = system: SR leukemia
MCF7 breast = system: MCF7 breast
MDA-MB-231 breast = system: MDA-MB-231 breast

SMILES	TGI (SF-268 CNS) [µM]	TGI (OVCAR-8 ovarian) [µM]	TGI (LOX IMVI melanoma) [µM]	TGI (UACC-257 melanoma) [µM]	TGI (COLO 205 colon) [µM]	TGI (EKVX NSCLC) [µM]	TGI (NCI-H226 lung) [µM]	TGI (SR leukemia) [µM]	GI50 (NCI-H226 lung) [µM]	GI50 (OVCAR-8 ovarian) [µM]	GI50 (LOX IMVI melanoma) [µM]	GI50 (SR leukemia) [µM]	GI50 (UACC-257 melanoma) [µM]	GI50 (COLO 205 colon) [µM]	GI50 (EKVX NSCLC) [µM]	GI50 (SF-268 CNS) [µM]	GI50 (MCF7 breast) [µM]	TGI (MCF7 breast) [µM]	GI50 (MDA-MB-231 breast) [µM]	TGI (MDA-MB-231 breast) [µM]
CC1(c2ccc(Cl)cc2)C2C(=O)NC(=O)C1C(=O)NC2=O (stereo not given)	> 100	> 100	> 100	> 100	> 100	> 100	–	–	–	–	–	–	–	–	–	–	–	–	–	–
Brc1ccc2ns[s+]c2c1	> 100	> 100	> 100	> 100	> 41.9	> 100	> 100	> 100	–	–	–	–	–	–	–	–	–	–	–	–
CCCCCCC[CH2][Sn]1([CH2]CCCCCCC)[O]C(=O)c2cccnc2[O]1	–	> 100	> 100	> 100	> 100	> 100	> 100	> 100	> 100	> 100	> 100	> 100	> 100	> 100	> 100	–	–	–	–	–
c1ccc2c3c([nH]c2c1)C(c1ccc(C2NCCc4c2[nH]c2ccccc42)cc1)NCC3 (stereo not given)	2.57	–	0.45	3.52	0.459	3.39	4.23	–	1.96	–	0.196	–	1.91	0.204	1.42	1.12	0.393	1.75	0.296	0.936
NC(=O)NC1C(C(N)=O)N(Cc2ccccc2)C(=O)N1Cc1ccccc1 (stereo not given)	> 100	> 100	> 100	> 100	> 100	> 100	–	> 100	–	–	–	–	–	–	–	–	–	–	–	–
Cn1cc(C2=C(c3cn(CCCCCSC(=N)N)c4ccccc34)C(=O)NC2=O)c2ccccc21	7.8	10.4	6.48	7.47	4.68	–	9.96	2.24	4.09	3.61	2.92	0.79	4.01	1.24	–	3.86	1.22	4.97	3.91	7.49
O=C1NC(=NCCCc2ccccc2)S/C1=C\c1ccc2ncccc2c1	12.5	16.8	14.6	22.9	> 20.7	–	10.7	16.5	4.2	5.94	5.12	3.73	6.73	6.98	–	5.39	4.11	11.2	8.12	> 22.5
CCOC(=O)C1(C)CCCCC(=O)N1 (stereo not given)	> 100	> 100	> 100	–	> 100	> 100	–	–	–	–	–	–	–	–	–	–	–	–	–	–
CC1=C(C(=O)Nc2ccc(Cl)c(C(=O)OC(C)C)c2)SCCO1	> 89.9	> 100	84.6	> 89.8	60	> 95.5	> 77.4	–	–	–	–	–	–	–	–	–	–	> 90.4	–	> 100
ClC(Cl)[Si]12OCCN(CCO1)CCO2	> 100	> 100	–	> 100	> 100	–	–	> 100	–	–	–	–	–	–	–	–	–	–	–	–
O=C1c2ccccc2C(=O)c2c(OCCOCCO)cccc21	> 100	> 100	> 100	> 100	> 100	> 100	–	> 100	–	–	–	–	–	–	–	–	–	> 100	–	> 100
Cn1nc(-c2ccccc2)c2c(/C=C/c3ccccc3)onc2c1=O	> 100	> 100	> 100	> 100	> 100	> 100	> 100	> 100	–	–	–	–	–	–	–	–	–	–	–	–
COc1ccc(/C(C#N)=C2C=C/C(=N/O)c3ccccc3\2)cc1	15	13.1	14.7	22.7	3.52	–	17	5.06	3.71	0.327	0.382	0.133	10.5	1.34	–	0.481	0.181	14.1	0.27	0.796
Nc1ncnc2c1ncn2C1OC(CO)C(O)C1N (stereo not given)	> 100	> 100	> 100	> 100	> 100	> 100	> 100	> 100	–	–	–	–	–	–	–	–	–	–	–	> 100
CCN1CCN(C(=O)[C@]23CCC(C)(C)C[C@@H]2C2=CC[C@@H]4[C@@]5(C)C/C(=C/c6ccncc6)C(=O)C(C)(C)[C@@H]5CC[C@@]4(C)[C@]2(C)CC3)CC1	–	–	2.8	3.28	3.64	3.01	4.31	–	2	–	1.4	–	1.51	1.64	1.49	–	1.08	2.53	1.63	3.16
CN(c1ccccc1)c1c(Cl)c(=O)oc2c1ccc1occc12	–	> 100	> 100	> 100	–	> 100	> 100	> 100	–	–	–	–	–	–	–	–	–	–	–	–
COC(=O)c1ccc(NC(=O)Oc2ccc(N(CCCl)CCCl)cc2)cc1	18.5	84.6	> 100	99.7	> 100	–	50.6	> 100	12.1	4.34	3.69	0.394	7.73	9.88	–	1.94	1.6	> 100	20.1	> 100
c1cc2c(cn1)Nc1ccncc1S2	> 100	> 100	> 100	> 100	59.5	> 100	> 100	–	49.2	35.7	33.2	–	71.5	11.8	55.8	30.5	32.9	> 100	98.9	> 100
Cc1ccc(S(=O)(=O)NC(CN)C(=O)O)cc1 (stereo not given)	> 100	> 100	> 100	> 100	> 100	> 100	> 100	–	–	–	–	–	–	–	–	–	–	> 100	–	> 100
CCOC(=O)c1cnc2c(C)cccc2c1Nc1ccc(C(C)=O)cc1	64.2	> 100	> 100	> 100	43.4	–	> 100	> 100	7.01	33.8	47	60.8	79.9	17.5	–	18.3	28	> 100	19.7	> 100

SMILES	TGI (SF-268 CNS) [µM]	TGI (OVCAR-8 ovarian) [µM]	TGI (LOX IMVI melanoma) [µM]	TGI (UACC-257 melanoma) [µM]	TGI (COLO 205 colon) [µM]	TGI (EKVX NSCLC) [µM]	TGI (NCI-H226 lung) [µM]	TGI (SR leukemia) [µM]	GI50 (NCI-H226 lung) [µM]	GI50 (OVCAR-8 ovarian) [µM]	GI50 (LOX IMVI melanoma) [µM]	GI50 (SR leukemia) [µM]	GI50 (UACC-257 melanoma) [µM]	GI50 (COLO 205 colon) [µM]	GI50 (EKVX NSCLC) [µM]	GI50 (SF-268 CNS) [µM]	GI50 (MCF7 breast) [µM]	TGI (MCF7 breast) [µM]	GI50 (MDA-MB-231 breast) [µM]	TGI (MDA-MB-231 breast) [µM]
Cc1ccc(S(=O)(=O)N/N=C(/c2nc3ccc([N+](=O)[O-])cc3[nH]c2=O)C(O)c2ccc(C(O)/C(=N\NS(=O)(=O)c3ccc(C)cc3)c3nc4ccc([N+](=O)[O-])cc4[nH]c3=O)cc2)cc1 (stereo not given)	–	> 100	> 100	> 100	> 100	> 100	–	–	–	–	–	–	–	–	–	–	–	–	–	–
COC(=O)CSSCc1ccc([N+](=O)[O-])cc1	45.9	82.1	30.3	98.4	37.7	69.2	–	70.2	–	–	–	–	–	–	–	–	–	34.3	–	46.8
COc1ccc(/C=C/C(=O)c2sc(-n3nc(-c4ccccc4)cc3-c3ccccc3)nc2C)cc1	> 100	> 100	> 100	> 100	> 100	> 100	> 100	–	> 100	> 100	> 100	–	–	> 100	51.1	> 100	–	–	–	–
COc1cc(CCc2ccc(N)cc2)cc(OC)c1OC	> 100	> 100	> 100	> 100	53.1	> 100	> 100	–	–	–	–	–	–	–	–	–	–	–	–	–
CC(=O)C1=C(O)C2C3c4c[nH]c5cccc(c45)CC3C(C)(C)N2C1=O (stereo not given)	> 100	–	67.3	> 100	> 100	> 100	71.4	–	–	–	–	–	–	–	–	–	–	–	–	–
CC(=O)OC1COC(n2c(=S)n(-c3ccccc3)c(=O)c3ccccc32)C(OC(C)=O)C1OC(C)=O (stereo not given)	> 100	> 100	> 100	> 100	> 100	> 100	> 100	–	–	–	–	–	–	–	–	–	–	–	–	–
CC(SC(=O)Nc1ccc(N=Nc2ccccc2)cc1)C(=O)O (stereo not given)	48.9	> 100	> 100	> 100	> 100	> 100	> 100	> 100	–	–	–	–	–	–	–	–	–	–	–	–
CC[C@H](C)[C@H](NC(=O)CN(C)C)C(=O)N(C)[C@H](C[C@@H](OC(C)=O)c1nc(C(=O)NC23CC(C(=O)OC)(C2)C3)cs1)C(C)C	> 25	> 25	> 25	> 25	5.59	> 25	> 25	–	> 25	0.46	0.276	–	> 25	0.144	1.53	0.831	0.11	> 25	0.287	> 12.2
CCOc1ccc(NC(=O)CC2C(=O)Nc3ccccc3S2(=O)=O)cc1 (stereo not given)	> 100	> 100	> 100	> 100	> 100	> 100	90.3	> 100	–	–	–	–	–	–	–	–	–	–	–	–
c1ccc2c(c1)cc1n2CC2CN=NC12 (stereo not given)	> 100	> 100	> 100	> 100	–	> 100	> 100	> 100	–	–	–	–	–	–	–	–	–	–	–	–
C=CCc1cc(OC)c2c(c1)C(OC)CC(c1ccc(OC)c(OC)c1)O2 (stereo not given)	> 100	> 100	> 100	> 100	> 100	> 100	–	–	–	–	–	–	–	–	–	–	–	–	–	–
COc1cc2c3c(n(C)c(=O)c2cc1OC)-c1ccc(C#N)cc1C3=O	> 100	> 100	> 100	> 100	> 100	> 100	> 100	–	> 100	> 100	> 100	–	> 100	> 100	> 100	> 100	51.1	> 100	> 100	> 100
CC(=O)NNc1nc(C)c(C(=O)NNC(=O)C(=O)Nc2ccc(Cl)cc2Cl)s1	78.6	> 100	> 100	83.4	> 100	> 100	> 100	–	–	–	–	–	–	–	–	–	–	–	–	–
COC(=O)[C@H]1CCCN1C(=O)[C@H]1CCCN1C(=O)[C@H](Cc1c[nH]c2ccccc12)NC(=S)Nc1cc(C(F)(F)F)cc(C(F)(F)F)c1	> 100	> 100	26.3	> 100	4.28	–	> 100	> 100	9.63	7.01	3.19	3.67	5.87	2.08	–	8.2	2.99	> 100	2.18	5.25
O=C(CN1C(=O)S/C(=C\C(Cl)=C\c2ccccc2)C1=O)NC1C=CS(=O)(=O)C1 (stereo not given)	8.55	> 100	0.624	8.82	3.76	6.06	–	> 100	–	0.939	0.24	0.29	2.18	1.54	2.19	2.44	0.467	> 100	1.44	4.15
CC(=O)O[C@H]1CC[C@@]2(C)C(=CC[C@@H]3C2CC[C@]2(C)Nc4nc5ccccc5cc4CC32)C1 (stereo not given in full)	14.9	10.9	–	13	20.9	18.8	8.25	–	–	–	–	–	–	–	–	–	–	–	–	–
C[C@]12CCC3[C@@H](CC[C@@H]4c5nonc5CC[C@]34C)C1CC[C@@H]2O (stereo not given in full)	> 100	> 100	41.1	46.9	71.3	75.5	> 100	–	–	–	–	–	–	–	–	–	–	–	–	–
O=C(CC(Cl)=C(Cl)Cl)c1cccc(Cl)c1Cl	> 100	> 100	> 100	> 100	> 100	> 100	> 100	–	75.1	> 100	38.1	–	> 100	> 100	57.7	> 100	66.8	> 100	65.6	> 100
CC(C)(C)C(C#N)(C#N)c1ccc(C(C#N)(C#N)C(C)(C)C)nn1	> 100	> 100	> 100	> 100	> 100	> 100	–	–	–	–	–	–	–	–	–	–	–	–	–	–
